Results reported in patent US20260356856A1, “KRAS G12S AND G12C INHIBITORS” (MIRATI THERAPEUTICS, INC., priority 2023, published 2026).

How the values were obtained:
[1] = molecular target: T1, KRas-mediated phosphorylation of ERK in A549 cells (Homo sapiens, UniProt P01116, G12S); assay: Inhibition of KRas-mediated phosphorylation of ERK (HTRF), A549 cells; format: cell-based; settings: HTRF pERK, 3 h incubation
T1 construct: pERK HTRF read-out

[2] = molecular target: T2, KRas G12C (Homo sapiens, UniProt P01116, G12C); assay: KRas binding assay, TR-FRET displacement of Cy5 labelled tracer; settings: 60-minute incubation at room temperature, 1% DMSO, pH 7.5
T2 construct: Biotinylated KRas (corresponding to amino acids 1-169, produced at Accelegan Inc.); biotin (biotinylated); purchased Accelegan Inc
T2 sequence (P01116 1-169 isoform P01116-2 G12C): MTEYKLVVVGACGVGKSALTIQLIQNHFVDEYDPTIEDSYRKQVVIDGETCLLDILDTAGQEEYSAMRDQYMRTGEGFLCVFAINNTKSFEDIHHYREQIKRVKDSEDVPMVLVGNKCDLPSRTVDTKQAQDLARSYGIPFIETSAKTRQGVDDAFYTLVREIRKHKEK
In short: (§1)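 Assay buffer was HEPES (50 mM, pH 7.5) with MgCl2 (5 mM), DTT (1 mM) and Tween-20 (0.005%). Biotinylated KRas spanning residues 1-169 met tracer, terbium streptavidin and compound (1% DMSO, final) for 60 minutes at ambient temperature before reading. POC values were fitted for IC50.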

[3] = molecular target: T3, KRas WT (Homo sapiens, UniProt P01116); assay: as above; settings: 60-minute incubation at room temperature, 1% DMSO, pH 7.5
T3 construct: Biotinylated KRas (corresponding to amino acids 1-169, produced at Accelegan Inc.); biotin (biotinylated); purchased Accelegan Inc
T3 sequence (P01116 1-169 isoform P01116-2): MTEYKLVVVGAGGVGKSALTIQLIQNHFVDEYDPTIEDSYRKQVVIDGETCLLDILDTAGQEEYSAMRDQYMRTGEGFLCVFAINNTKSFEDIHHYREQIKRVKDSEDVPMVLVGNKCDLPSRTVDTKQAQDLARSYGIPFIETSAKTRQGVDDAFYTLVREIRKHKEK
In short: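 Compound competes with tracer for biotin-labelled KRas (amino acids 1-169) bound to terbium-streptavidin. Incubation runs 60 minutes at room temperature, final DMSO 1%. IC50 values derive from a 4-parameter fit.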

[4] = molecular target: T4, KRas G12S (Homo sapiens, UniProt P01116, G12S); assay: as above; settings: 60-minute incubation at room temperature, 1% DMSO, pH 7.5
T4 construct: Biotinylated KRas (corresponding to amino acids 1-169, produced at Accelegan Inc.); biotin (biotinylated); purchased Accelegan Inc
T4 sequence (P01116 1-169 isoform P01116-2 G12S): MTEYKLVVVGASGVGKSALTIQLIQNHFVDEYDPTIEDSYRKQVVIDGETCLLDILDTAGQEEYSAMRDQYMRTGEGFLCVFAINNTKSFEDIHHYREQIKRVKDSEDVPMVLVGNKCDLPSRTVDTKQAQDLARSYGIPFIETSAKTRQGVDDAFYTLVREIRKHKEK
In short: as §1

[5] = molecular target: T5, KRas-mediated phosphorylation of ERK in MKN1 cells (Homo sapiens, UniProt P01116); assay: Inhibition of KRas-mediated phosphorylation of ERK (HTRF), MKN1 cells; format: cell-based; settings: MKN1 cells (KRas WT); HTRF pERK; 3 h incubation
T5 construct: pERK HTRF read-out
T5 sequence (P01116 1-188 isoform P01116-2): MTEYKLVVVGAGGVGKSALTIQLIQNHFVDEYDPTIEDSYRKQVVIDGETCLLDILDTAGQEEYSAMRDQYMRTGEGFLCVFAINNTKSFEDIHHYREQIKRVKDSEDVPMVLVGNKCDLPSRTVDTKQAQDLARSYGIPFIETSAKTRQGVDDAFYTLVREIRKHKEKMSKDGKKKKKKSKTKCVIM
Experimental: Inhibition of KRas Phosphorylation of ERK (HTRF) by Exemplary Compounds of Formula (Ia) or (Ib)
Cisbio HTRF Advanced pERK Assay Catalog #64AERPEH • Cells: MKN1, PSN1 • Procedure: • 1. Day 1: Seed 6,000 cells/well −25 μl/well in 384-well white solid bottom plate; RPM1_10% FBS. Incubate overnight at 37 °C/5% CO2. • 2.

T1 sequence (P01116 1-188 isoform P01116-2 G12S): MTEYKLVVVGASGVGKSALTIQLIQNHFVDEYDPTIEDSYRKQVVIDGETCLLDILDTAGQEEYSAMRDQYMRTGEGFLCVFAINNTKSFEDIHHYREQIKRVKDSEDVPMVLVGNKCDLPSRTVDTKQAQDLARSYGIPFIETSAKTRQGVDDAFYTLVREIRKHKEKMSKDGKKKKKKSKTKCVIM

| IC50 [1] | IC50 [2] | IC50 [3] | IC50 [4] | IC50 [5] | SMILES |
| --- | --- | --- | --- | --- | --- |
| > 10000 nM | 40 nM | 55 nM | 45 nM | 2200 nM | CCc1c(F)ccc2cc(O)cc(N3CCc4c(nc(OC[C@@]56CCCN5C[C@H](F)C6)nc4N(C)CCC(=O)n4ccc(C)n4)C3)c12 [Example 196, 3-((7-(8-ethyl-7-fluoro-3-hydroxynaphthalen-1-yl)-2-(((2R,7aS)-2-fluorotetrahydro-1H-pyrrolizin-7a(5H)-yl)methoxy)-5,6,7,8-tetrahydropyrido[3,4-d]pyrimidin-4-yl)(methyl)amino)-1-(3-methyl-1H-pyrazol-1-yl) propan-1-one] |
| > 10000 nM | 171 nM | 402 nM | 183 nM | > 10000 nM | CCc1c(F)ccc2cc(O)cc(-c3ncc4c(N5CC(C(=O)n6ccc(C)n6)C6(CC6)C5)nc(OC[C@@]56CCCN5C[C@H](F)C6)nc4c3F)c12 (stereo partly drawn) [Example 119, (5-(7-(8-ethyl-7-fluoro-3-hydroxynaphthalen-1-yl)-8-fluoro-2-(((2R,7aS)-2-fluorotetrahydro-1H-pyrrolizin-7a(5H)-yl)methoxy)pyrido[4,3-d]pyrimidin-4-yl)-5-azaspiro[2.4]heptan-7-yl)(3-methyl-1H-pyrazol-1-yl)methanone] |
| 2120 nM | 395 nM | 125 nM | 201 nM | 2850 nM | CCc1c(F)ccc2cc(O)cc(-c3ncc4c(N5CCC(C(=O)n6ccc(C)n6)C6CC65)nc(OC[C@@]56CCCN5C[C@H](F)C6)nc4c3F)c12 (stereo partly drawn) [Example 97, (2-(7-(8-ethyl-7-fluoro-3-hydroxynaphthalen-1-yl)-8-fluoro-2-(((2R,7aS)-2-fluorotetrahydro-1H-pyrrolizin-7a(5H)-yl)methoxy)pyrido[4,3-d]pyrimidin-4-yl)-2-azabicyclo[4.1.0]heptan-5-yl)(3-methyl-1H-pyrazol-1-yl)methanone] |
| 16 nM | < 2 nM | 13 nM | 3 nM | 219 nM | CCc1c(F)ccc2cc(O)cc(-c3ncc4c(NCCCC(=O)n5ccc(C)n5)nc(OC[C@@]56CCCN5C[C@H](F)C6)nc4c3F)c12 [Example 111, 4-((7-(8-ethyl-7-fluoro-3-hydroxynaphthalen-1-yl)-8-fluoro-2-(((2R,7aS)-2-fluorotetrahydro-1H-pyrrolizin-7a(5H)-yl)methoxy)pyrido[4,3-d]pyrimidin-4-yl)amino)-1-(3-methyl-1H-pyrazol-1-yl) butan-1-one] |
| 7590 nM | 131 nM | 98 nM | 129 nM | 1250 nM | CCc1c(F)ccc2cc(O)cc(-c3ncc4c(N(C)CCCS(=O)(=O)n5ccnc5)nc(OC[C@@]56CCCN5C[C@H](F)C6)nc4c3F)c12 [Example 163, 4-(4-((3-((1H-imidazol-1-yl)sulfonyl)propyl)(methyl)amino)-8-fluoro-2-(((2R,7aS)-2-fluorotetrahydro-1H-pyrrolizin-7a(5H)-yl)methoxy)pyrido[4,3-d]pyrimidin-7-yl)-5-ethyl-6-fluoronaphthalen-2-ol] |
| 4050 nM | 129 nM | 68 nM | 158 nM | 333 nM | CCc1c(F)ccc2cc(O)cc(-c3ncc4c(N5CCCC6CC6(C(=O)n6ccc(C)n6)CC5)nc(OC[C@@]56CCCN5C[C@H](F)C6)nc4c3F)c12 (stereo partly drawn) [Example 117, (4-(7-(8-ethyl-7-fluoro-3-hydroxynaphthalen-1-yl)-8-fluoro-2-(((2R,7aS)-2-fluorotetrahydro-1H-pyrrolizin-7a(5H)-yl)methoxy)pyrido[4,3-d]pyrimidin-4-yl)-4-azabicyclo[6.1.0]nonan-1-yl)(3-methyl-1H-pyrazol-1-yl)methanone] |
| > 10000 nM | 260 nM | 233 nM | 286 nM | 9190 nM | CCc1c(F)ccc2cc(O)cc(-c3ncc4c(N5CC6CC5CC6C(=O)n5ccc(C)n5)nc(OC[C@@]56CCCN5C[C@H](F)C6)nc4c3F)c12 (stereo partly drawn) [Example 90, (2-(7-(8-ethyl-7-fluoro-3-hydroxynaphthalen-1-yl)-8-fluoro-2-(((2R,7aS)-2-fluorotetrahydro-1H-pyrrolizin-7a(5H)-yl)methoxy)pyrido[4,3-d]pyrimidin-4-yl)-2-azabicyclo[2.2.1]heptan-5-yl)(3-methyl-1H-pyrazol-1-yl)methanone] |
| 2070 nM | 37 nM | 1060 nM | 513 nM | > 10000 nM | C=CC1(C(=O)n2ccc(C)n2)CCN(c2nc(OC[C@@]34CCCN3C[C@H](F)C4)nc3c(F)c(-c4cc(O)cc5ccc(F)c(CC)c45)ncc23)C1 (stereo partly drawn) [Example 107, (1-(7-(8-ethyl-7-fluoro-3-hydroxynaphthalen-1-yl)-8-fluoro-2-(((2R,7aS)-2-fluorotetrahydro-1H-pyrrolizin-7a(5H)-yl)methoxy)pyrido[4,3-d]pyrimidin-4-yl)-3-vinylpyrrolidin-3-yl)(3-methyl-1H-pyrazol-1-yl)methanone] |
| 67 nM | 72 nM | 219 nM | 21 nM | 699 nM | CCc1c(F)ccc2cc(O)cc(-c3ncc4c(N(C)CCCC(=O)N(C)C(C)=O)nc(OC[C@@]56CCCN5C[C@@]5(CC5(F)F)C6)nc4c3F)c12 [Example 293, N-acetyl-4-((2-(((1S,7a'S)-2,2-difluorodihydro-1′H,3′H-spiro[cyclopropane-1,2′-pyrrolizin]-7a′ (5′H)-yl)methoxy)-7-(8-ethyl-7-fluoro-3-hydroxynaphthalen-1-yl)-8-fluoropyrido[4,3-d]pyrimidin-4-yl)(methyl)amino)-N-methylbutanamide] |
| 1780 nM | 310 nM | 229 nM | 203 nM | 622 nM | CCc1c(F)ccc2cc(O)cc(-c3ncc4c(N5CCC(C(=O)N(C)C(=O)C(C)C)CC5)nc(OC[C@@]56CCCN5C[C@H](F)C6)nc4c3F)c12 [Example 166, 1-(7-(8-ethyl-7-fluoro-3-hydroxynaphthalen-1-yl)-8-fluoro-2-(((2R,7aS)-2-fluorotetrahydro-1H-pyrrolizin-7a(5H)-yl)methoxy)pyrido[4,3-d]pyrimidin-4-yl)-N-isobutyryl-N-methylpiperidine-4-carboxamide] |
| > 10000 nM | 784 nM | 716 nM | 934 nM | 5550 nM | CCc1c(F)ccc2cc(O)cc(-c3ncc4c(N5CC(C(=O)n6ccc(C)n6)C(C)(C)C5)nc(OC[C@@]56CCCN5C[C@H](F)C6)nc4c3F)c12 (stereo partly drawn) [Example 101, (1-(7-(8-ethyl-7-fluoro-3-hydroxynaphthalen-1-yl)-8-fluoro-2-(((2R,7aS)-2-fluorotetrahydro-1H-pyrrolizin-7a(5H)-yl)methoxy)pyrido[4,3-d]pyrimidin-4-yl)-4,4-dimethylpyrrolidin-3-yl)(3-methyl-1H-pyrazol-1-yl)methanone] |
| 230 nM | 5 nM | 113 nM | 11 nM | 2140 nM | CCc1c(F)ccc2cc(O)cc(N3CCc4c(nc(OC[C@@]56CCCN5C[C@H](F)C6)nc4NCCCC(=O)n4ccc(C)n4)C3)c12 [Example 193, 4-((7-(8-ethyl-7-fluoro-3-hydroxynaphthalen-1-yl)-2-(((2R,7aS)-2-fluorotetrahydro-1H-pyrrolizin-7a(5H)-yl)methoxy)-5,6,7,8-tetrahydropyrido[3,4-d]pyrimidin-4-yl)amino)-1-(3-methyl-1H-pyrazol-1-yl) butan-1-one] |
